Values joined by “and” are separate entries in the source; they are usually repeats but may differ in a detail not shown here. Identical values can stand only once.
System: Female Balb/c mice
Experiment: Adjuvanticity of lipids: serum anti-KLH IgA, IgG, IgM ELISA (Example 7)
Assay type: in vivo
Conditions: for Day 7 Results IgA, score as multiples of the control response / Day 7 Results IgG, score as multiples of the control response / Day 7 Results IgM, score as multiples of the control response: serum day 7 after booster; for Day 7 Results IgA, score as multiples of the control response: 5 μl lipid + 45 μl saline + 50 μl KLH (2 mg/ml), week 0 and week 2; for Day 7 Results IgA, score as multiples of the control response / Day 7 Results IgG, score as multiples of the control response / Day 7 Results IgM, score as multiples of the control response / Day 21 Results IgA, score as multiples of the control response / Day 21 Results IgG, score as multiples of the control response / Day 21 Results IgM, score as multiples of the control response: control KLH + Saline = 1; for Day 21 Results IgA, score as multiples of the control response / Day 21 Results IgG, score as multiples of the control response / Day 21 Results IgM, score as multiples of the control response: serum day 21 after booster; for Ranking Total: sum of the six IgA, IgG, IgM scores of day 7 and day 21, control KLH + Saline = 6
Description: The objective of this study was to investigate the adjuvanticity of 19 different lipids.
Female Balb/c mice, 6-8 weeks and weighing about 20-22 gms were used and maintained on a normal mouse diet throughout the study.
There were 22 groups of mice marked alphabetically from A-V. Group A (8 mice) was the negative control (KLH+Saline), Group B (8 mice) was the positive control (KLH+IFA). Groups C-V were the experimental groups containing 6 mice each. 100 μl of antigen preparation comprising of 5 μl lipid+45 μl saline+50 μl (2 mg/ml KLH) was administered to 20 groups of 6 mice each, on week 0 followed by a boost on week 2.
On day 7 and day 21 after the booster dose, the mice were tail bled, the serum separated, aliquoted and stored at 4° C.
The specific anti-KLH IgG and IgM antibody content of each individual serum sample was determined in an established ELISA assay and standardised against a positive control antiserum obtained by hyperimmunisation of mice with KLH (100 μg) in Freund's incomplete adjuvant. Plates were coated with KLH at 2 μg/ml and incubated with four twofold dilutions of samples (100 μl) at 37° C. for 2 hours. The initial dilution of serum samples was 1:50 for IgA assay and 1:100 for IgG and IgM assays. […] IgA and IgM were used at 1:1000 and IgG at 1:2000 for 2 hours at 37° C. The results were expressed as antibody units calculated from the standard curve obtained from pooled immune mouse serum given an arbitrary antibody value of 100,000 IgA units/ml and 1×10^6 IgG and IgM units/ml. The standard curve was diluted from 1:100 to 1:3200 for IgA, 1:4000 to 1:256,000 for IgG and 1:1000 to 1:32000 for IgM samples. The value for each sample dilution falling on standard curve was calculated and the mean taken as the value for the sample.
Results are given in the form of histograms (FIGS. 9 to 14), plotting the Ig response (units/ml) against the trial grouping. […] The number signifies multiples of the control response.

CCCCCCCCCCCCCCCCC(=O)OC[C@H](COP(=O)(O)O)OC(=O)CCCCCCCCCCCCCCCC [PAH, L-α-Phosphatidicacid, diheptadecanoyl]
Day 7 Results IgA, score as multiples of the control response: 5
Day 7 Results IgG, score as multiples of the control response: 4
Day 7 Results IgM, score as multiples of the control response: 2
Day 21 Results IgA, score as multiples of the control response: 2
Day 21 Results IgG, score as multiples of the control response: 6
Day 21 Results IgM, score as multiples of the control response: 2
Ranking Total: 21

CCCCCCCCCCCCCCCCCC(=O)OC[C@H](COP(=O)(O)OCCN)OC(=O)CCCCCCCCCCCCCCCCC [PES, L-α-Phosphatidylethanolamine, distearoyl]
Day 7 Results IgA, score as multiples of the control response: 15
Day 7 Results IgG, score as multiples of the control response: 6
Day 7 Results IgM, score as multiples of the control response: 1
Day 21 Results IgA, score as multiples of the control response: 2
Day 21 Results IgG, score as multiples of the control response: 7
Day 21 Results IgM, score as multiples of the control response: 1
Ranking Total: 32

CCCCCCCCCCCCCC(=O)OC[C@H](COP(=O)(O)OCCN)OC(=O)CCCCCCCCCCCCC [PEM, L-α-Phosphatidylethanolamine, dimyristoyl]
Day 7 Results IgA, score as multiples of the control response: 17
Day 7 Results IgG, score as multiples of the control response: 7
Day 7 Results IgM, score as multiples of the control response: 1
Day 21 Results IgA, score as multiples of the control response: 2
Day 21 Results IgG, score as multiples of the control response: 6
Day 21 Results IgM, score as multiples of the control response: 2
Ranking Total: 35

CCCCCCCCCCCCCCC(=O)OC[C@H](COP(=O)([O-])OCC[N+](C)(C)C)OC(=O)CCCCCCCCCCCCCC [PCP, L-α-Phosphatidylcholine, dipentadecanoyl]
Day 7 Results IgA, score as multiples of the control response: 9
Day 7 Results IgG, score as multiples of the control response: 5
Day 7 Results IgM, score as multiples of the control response: 2
Day 21 Results IgA, score as multiples of the control response: 2
Day 21 Results IgG, score as multiples of the control response: 3
Day 21 Results IgM, score as multiples of the control response: 1
Ranking Total: 22

CCCCCCCCCCCCCCC(=O)OCC(COC(=O)CCCCCCCCCCCCCC)OC(=O)CCCCCCCCCCCCCC [TPeN, Tripentadecanoin]
Day 7 Results IgA, score as multiples of the control response: 11
Day 7 Results IgG, score as multiples of the control response: 4
Day 7 Results IgM, score as multiples of the control response: 2
Day 21 Results IgA, score as multiples of the control response: 3
Day 21 Results IgG, score as multiples of the control response: 9
Day 21 Results IgM, score as multiples of the control response: 2
Ranking Total: 31

CCCCCCCCCCCCCCCC(=O)OCC(COC(=O)CCCCCCCCCCCCC)OC(=O)CCCCCCCCCCCCCCC (racemic) [DPM, 1,2 Diplamitoyl-3-myristoyl-rac-glycerol]
Day 7 Results IgA, score as multiples of the control response: 16
Day 7 Results IgG, score as multiples of the control response: 3
Day 7 Results IgM, score as multiples of the control response: 1
Day 21 Results IgA, score as multiples of the control response: 2
Day 21 Results IgG, score as multiples of the control response: 7
Day 21 Results IgM, score as multiples of the control response: 2
Ranking Total: 31

CCCCCCCCCCCCCCCCCC(=O)OCC(COP(=O)([O-])OCC[N+](C)(C)C)OC(=O)CCCCCCCCCCCCCCCCC (racemic) [PCS, DL-α-Phosphatidylcholine, distearoyl]
Day 7 Results IgA, score as multiples of the control response: 22
Day 7 Results IgG, score as multiples of the control response: 8
Day 7 Results IgM, score as multiples of the control response: 2
Day 21 Results IgA, score as multiples of the control response: 2
Day 21 Results IgG, score as multiples of the control response: 13
Day 21 Results IgM, score as multiples of the control response: 2
Ranking Total: 49

CCCCCCCCCCCCCCCC(=O)OCC(COP(=O)(O)OCCN)OC(=O)CCCCCCCCCCCCCCC (racemic) [PEP, DL-α-Phosphatidylethanolamine, dipalmitoyl]
Day 7 Results IgA, score as multiples of the control response: 9
Day 7 Results IgG, score as multiples of the control response: 8
Day 7 Results IgM, score as multiples of the control response: 2
Day 21 Results IgA, score as multiples of the control response: 2
Day 21 Results IgG, score as multiples of the control response: 17
Day 21 Results IgM, score as multiples of the control response: 1
Ranking Total: 40 and 39

CCCCCCCCCCCCCC(=O)OC[C@H](COP(=O)(O)O)OC(=O)CCCCCCCCCCCCC [PAM, L-α-Phosphatidicacid, dimyristoyl]
Day 7 Results IgA, score as multiples of the control response: 4
Day 7 Results IgG, score as multiples of the control response: 5
Day 7 Results IgM, score as multiples of the control response: 1
Day 21 Results IgA, score as multiples of the control response: 1
Day 21 Results IgG, score as multiples of the control response: 6
Day 21 Results IgM, score as multiples of the control response: 1
Ranking Total: 18

CCCCCCCCCCCCC/C=C/[C@@H](O)[C@H](CO)NC(=O)CCCCCCCCCCCCCCC [PS, N-Palmitoyl-d-sphigosine]
Day 7 Results IgA, score as multiples of the control response: 35
Day 7 Results IgG, score as multiples of the control response: 3
Day 7 Results IgM, score as multiples of the control response: 2
Day 21 Results IgA, score as multiples of the control response: 4
Day 21 Results IgG, score as multiples of the control response: 19
Day 21 Results IgM, score as multiples of the control response: 1
Ranking Total: 64

CCCCCCCCCCCCCCCC(=O)OCC(COC(=O)CCCCCCCCCCCCCCC)OC(=O)CCCCCCCCCCCCCCC [TPaL, Tripalmitin]
Day 7 Results IgA, score as multiples of the control response: 3
Day 7 Results IgG, score as multiples of the control response: 4
Day 7 Results IgM, score as multiples of the control response: 1
Day 21 Results IgA, score as multiples of the control response: 1
Day 21 Results IgG, score as multiples of the control response: 6
Day 21 Results IgM, score as multiples of the control response: 1
Ranking Total: 16
Ranking Total (listed as TpaL): 15

CCCCCCCCCCCCCC(=O)OCC(COC(=O)CCCCCCCCCCCCC)OC(=O)CCCCCCCCCCCCC [TM, Trymyristin]
Day 7 Results IgA, score as multiples of the control response: 6
Day 7 Results IgG, score as multiples of the control response: 4
Day 7 Results IgM, score as multiples of the control response: 1
Day 21 Results IgA, score as multiples of the control response: 1
Day 21 Results IgG, score as multiples of the control response: 3
Day 21 Results IgM, score as multiples of the control response: 1
Ranking Total: 17 and 16

CCCCCCCCCCCCCCCC(=O)OCC(COP(=O)(O)OC[C@H](N)C(=O)O)OC(=O)CCCCCCCCCCCCCCC (mixture of isomers) [PSP, DL-α-Phosphatidyl-L-serine, dipalmitoyl]
Day 7 Results IgA, score as multiples of the control response: 47
Day 7 Results IgG, score as multiples of the control response: 2
Day 7 Results IgM, score as multiples of the control response: 2
Day 21 Results IgA, score as multiples of the control response: 3
Day 21 Results IgG, score as multiples of the control response: 14
Day 21 Results IgM, score as multiples of the control response: 2
Ranking Total: 70

CCCCCCCCCCCCCCCCCC(=O)OCC(COC(=O)CCCCCCCCCCCCC)OC(=O)CCCCCCCCCCCCCCCCC (racemic) [DSM, 1,2 Distearloyl-3-myristoyl-rac-glycerol]
Day 7 Results IgA, score as multiples of the control response: 26
Day 7 Results IgG, score as multiples of the control response: 4
Day 7 Results IgM, score as multiples of the control response: 4
Day 21 Results IgA, score as multiples of the control response: 3
Day 21 Results IgG, score as multiples of the control response: 5
Day 21 Results IgM, score as multiples of the control response: 3
Ranking Total: 45

— patent US20040023922A1, “Lipids for modulating immune response” (priority 2000, published 2004)
